Reference: US10501493B2, “Broad spectrum antibiotics” (priority 2011, dated 2019)
pIC50: −log10 of the molar value. ≈ marks a conversion by molar mass, not a printed value. Read-outs that look alike come from different tables or passages of the source.

Columns and labels:
S. aureus SPase = biological target: T1, S. aureus SPase (Staphylococcus aureus, UniProt P0A070); test: Enzymatic fluorogenic substrate cleavage assay for IC50; format: biochemical
T1 construct: Full length His-tagged S. aureus SPase protein was expressed similarly; His-tag; made in house; host or cells: E. coli BL21(DE3)
Method: (§1) Full length His-tagged E. coli SPase proteins were expressed in E. coli BL21(DE3) containing the plasmid pET23-lepB, P. A. Smith et al. Chem Biol 2010, 1223-1231. Briefly, saturated overnight cultures grown in 20 ml of Luria-Bertani medium supplemented with ampicillin were subcultures into 1.5 L of Luria-Bertani, and shaken at 37° C. until an optical density at 600 nm of 0.4-0.5 was achieved. Protein expression was induced with Isopropyl β-D-1-thiogalactopyranoside (ITPG) at a final concentration of […], and purified using nickel affinity chromatography. Full length His-tagged S. aureus SPase protein was expressed similarly from E. coli BL21(DE3) containing the plasmid pCDF1-SaSpsB or pCDF1-SaSpsB(P29S) and purified similarly to the E. coli protein with the following exceptions. SPase protein was solubilized using 300 mM NaCl, 20 mM Tris pH 8.06, 5 mM Imidazole, 10% glycerol, 1% Triton X-100, prior to purification in Ni-NTA Superflow resin and resin bound protein was washed in a similar buffer containing 1% Elugent in place of Triton X-100 prior to protein eluted in wash buffer supplemented with 300 mM imidazole. Protein purify was judged to exceed 95% by visual inspection of SDS-PAGE followed by Comassie staining. All protein concentrations were determined by BCA assay.
(§2) In addition to the equilibrium binding assays, compound activity is also characterized by measuring inhibition of E. coli and S. aureus substrate cleavage reactions using fluorogenic peptides developed at RQx Pharmaceuticals. Briefly, two fluorogenic peptide substrates (decanoyl-LSSPA Y^NO2 A ? ADK^abzPD (SEQ ID NO: 1) and decanyol-LTPTAY^NO2 A ? ASKK^abzDD (SEQ ID NO: 2)) have been synthesized, where abz is the fluorescence donor 2-aminobenzamide, YNO2 is the fluorescence acceptor 3-nitrotyrosine, and the cleavage site is indicated with an arrow. These substrates are processed with a second order rate constant (Kcat/KM) of 10^5 M^−1s^−1 for E. coli and S. aureus SPase enzymes, and cleavage results in a greater than 10-fold increase in fluorescence signal (excitation at 314 nm, emission at 416 nm) as measured using a SpectraMax M2 fluorescence microplate reader. Two-folder serial dilutions of compound are prepared in cleavage reaction buffer consisting of: 50 mM Tris-HCl pH 8.0, 100 mM NaCl, 10% glycerol, 1 mM EDTA, detergent (1% NP-40 or 0.1% Elugent™ for E. coli LepB or S. aureus SpsB respectively) and either 2.5 nM of E. coli SPase enzyme or 10 nM of S. aureus SPase enzyme. 40 μl aliquots of the compound dilution series in the protein/buffer solution is transferred to black 384-well polypropylene plates, and 10 μl of fluorogenic peptide at a concentration of 100 μM is added to initiate the reaction. The increase in fluorescence, corresponding to substrate cleavage, is monitored continuously at room temperature for 30 minutes and initial reaction rates are calculated based in the linear increase in fluorescence from the initial 30 minutes of the reaction. Reaction rates are plotted as a function of compound concentration, and IC50 values are determined nonlinear regression analysis (SoftMax® Pro v5.4) of the sigmoidal dose-response curve.

E. coli SPase = biological target: T2, E. coli SPase (Escherichia coli, UniProt P00803); test: as above; format: biochemical
T2 construct: Full length His-tagged E. coli SPase proteins were expressed in E. coli BL21(DE3); His-tag; made in house; host or cells: E. coli BL21(DE3)
Method: as §1, §2

S. pneumoniae D39 = test: In vitro antimicrobial activity, MIC by broth micro-dilution; format: cell-based; conditions: for MIC: Streptococcus pneumoniae, D39, read-out: MIC class, S. pneumoniae D39
Method: (§3) In vitro antimicrobial activity of each compound was determined by measuring minimal inhibitor concentrations (MICs) using the broth micro-dilution technique as approved by the Clinical and Laboratory Standards Institute (CLSI). The microbiological panel examined contains a number of bacterial species including E. coli MG1655, P. aeruginosa, S. aureus, and S. epidermidis. In addition, the panel includes previously described pseudo-isogenic strains of these four species (P. A. Smith et al. Chem Biol 2010, 1223-1231), in which a specific proline residue in SPase (called LepB in Gram-negative organisms an SpsB in Gram-positive organisms) has been mutated to a different amino acid. The resulting strains have increased susceptibility to the arylomycin class of antibiotics. Analysis of the strains lacking this proline residue will increases the dynamic range of the assay, and comparison of the sensitivities of the isogenic pairs provides ongoing confirmation that the activity gained through derivatization is specific to the inhibition of SPase. Briefly, bacterial streaks were grown on Mueller Hinton Agar II (Difco™) with or without 5% lysed horse blood for a period of 24 hours at either 35° C. or 28° C. Bacterial colonies were suspended in cation adjusted Mueller Hinton broth and diluted to a final concentration of 1*10^7 colony forming units/ml. Two-fold serial dilutions of each compound were arrayed into 96-well plates (100 μl final volume per well) and 5 ul of the bacterial suspension will be added. […] MICs were periodically checked plating serial dilutions of MIC wells and quantitatively determining viable colonies.

S. epidermidis RP62A = test: as above; format: cell-based; conditions: for MIC: Staphylococcus epidermidis, RP62A, read-out: MIC class, S. epidermidis RP62A
Method: as §3

E. coli ATCC 25922 = test: as above; format: cell-based; conditions: for MIC: Escherichia coli, ATCC25922, read-out: MIC class, E. coli ATCC 25922
Method: as §3

[1] = tested on: S. aureus NCTC-8325 SpsB(P295); test: as above; format: cell-based; conditions: for MIC: Staphylococcus aureus, NCTC8325, read-out: MIC class, S. aureus NCTC-8325 SpsB(P295)
Method: as §3

[2] = tested on: E. col ATCC 25922 LepB(P84L); test: as above; format: cell-based, E. coli; conditions: for MIC: Escherichia coli, ATCC25922, read-out: MIC class, E. col ATCC 25922 LepB(P84L)
Method: as §3

S. aurues NCTC-8325 = test: as above; format: cell-based, S. aureus; conditions: Staphylococcus aureus, NCTC8325, read-out: MIC class, S. aurues NCTC-8325
Method: as §3

CCCCCCCCCCCCCCCC(=O)N(C)[C@H](CO)C(=O)N[C@H](CCc1ccccc1)C(=O)NCC(=O)N(C)[C@@H]1C(=O)N[C@@H](C)C(=O)N[C@H](C(=O)O)Cc2ccc(O)c(c2)-c2cc1ccc2O [Compound 41] gave a pIC50 (S. aureus SPase) of over 6.00, a pIC50 (E. coli SPase) of over 6.00 and an MIC (S. pneumoniae D39) of over 64 µg/mL. For the same compound, the MIC (S. epidermidis RP62A) was under 8 µg/mL, the MIC (E. coli ATCC 25922) was over 64 µg/mL and the MIC [1] was over 64 µg/mL. It also gave an MIC [2] of over 64 µg/mL.
CCCCCCCCCCCCCCCC(=O)N[C@H](CCN)C(=O)N[C@H](C)C(=O)NCC(=O)N(C)[C@@H]1C(=O)N[C@@H](C)C(=O)N[C@H](C(=O)O)Cc2ccc(O)c(c2)-c2cc1ccc2O [Compound 53] showed a pIC50 (S. aureus SPase) of over 6.00, a pIC50 (E. coli SPase) of 5.00 to 6.00 and an MIC (S. pneumoniae D39) of 16 to 64 µg/mL (≈ 18.2 to 72.7 µM). The MIC (S. epidermidis RP62A) was 16 to 64 µg/mL (≈ 18.2 to 72.7 µM), the MIC (E. coli ATCC 25922) was over 64 µg/mL and the MIC [1] was over 64 µg/mL. For the same compound, the MIC [2] was over 64 µg/mL.
For CCCCCCCCCCCCCCCC(=O)N(C)[C@H](CO)C(=O)N[C@H](Cc1ccccc1)C(=O)NCC(=O)N(C)[C@@H]1C(=O)N[C@@H](C)C(=O)N[C@H](C(=O)O)Cc2ccc(O)c(c2)-c2cc1ccc2O [Compound 39], the pIC50 (S. aureus SPase) was over 6.00, the pIC50 (E. coli SPase) was over 6.00 and the MIC (S. pneumoniae D39) was 16 to 64 µg/mL (≈ 16.7 to 66.9 µM). It also gave an MIC (S. epidermidis RP62A) of 16 to 64 µg/mL (≈ 16.7 to 66.9 µM), an MIC (E. coli ATCC 25922) of over 64 µg/mL and an MIC [1] of over 64 µg/mL. It also gave an MIC [2] of under 8 µg/mL.
CCCCCCCCCCCCCCCC(=O)N(C)[C@H](CN)C(=O)N[C@H](C)C(=O)NCC(=O)N(C)[C@@H]1C(=O)N[C@@H](C)C(=O)N[C@H](C(=O)O)Cc2ccc(O)c(c2)-c2cc1ccc2O [Compound 52] was tested, and the pIC50 (S. aureus SPase; fluorogenic peptide cleavage, read-out: IC50 class S. aureus SPase) was over 6.00, the pIC50 (E. coli SPase; fluorogenic peptide cleavage, read-out: IC50 class E. coli SPase) was 5.00 to 6.00 and the “MIC class, S. pneumoniae D39” value (S. pneumoniae D39; S. pneumoniae D39) was “b (MIC 16-64 μg/ml)”. The “MIC class, S. epidermidis RP62A” value (S. epidermidis RP62A; S. epidermidis RP62A) was “b (MIC 16-64 μg/ml)”, the “MIC class, E. coli ATCC 25922” value (E. coli ATCC 25922; E. coli ATCC 25922) was “a (MIC >64 μg/ml)” and the “MIC class, S. aureus NCTC-8325 SpsB(P295)” value ([1]; S. aureus NCTC-8325 SpsB(P295)) was “b (MIC 16-64 μg/ml)”. For the same compound, the “MIC class, E. col ATCC 25922 LepB(P84L)” value ([2]; E. col ATCC 25922 LepB(P84L)) was “a (MIC >64 μg/ml)”.
CCCCCCCCCCCCCCCC(=O)N(C)[C@H](CO)C(=O)N[C@H](C)C(=O)NCC(=O)N(C)[C@@H]1C(=O)N[C@@H](C)C(=O)N[C@H](C(=O)NCCO)Cc2ccc(O)c(c2)-c2cc1ccc2O [Compound 54] gave a pIC50 (S. aureus SPase) of 5.00 to 6.00, a pIC50 (E. coli SPase) of over 6.00 and an MIC (S. pneumoniae D39) of under 8 µg/mL. It also gave an MIC (S. epidermidis RP62A) of under 8 µg/mL, an MIC (E. coli ATCC 25922) of over 64 µg/mL and an MIC [1] of 16 to 64 µg/mL (≈ 17.3 to 69.3 µM). It also gave an MIC [2] of under 8 µg/mL.
CCCCCCCCCCCCCCCC(=O)N(C)[C@H](CO)C(=O)N[C@H](C)C(=O)NCC(=O)N(C)[C@@H]1C(=O)N[C@@H](C)C(=O)N[C@H](C(=O)OCCN)Cc2ccc(O)c(c2)-c2cc1ccc2O [Compound 55] was tested, and the pIC50 (S. aureus SPase) was 5.00 to 6.00, the pIC50 (E. coli SPase) was 5.00 to 6.00 and the MIC (S. pneumoniae D39) was under 8 µg/mL. For the same compound, the MIC (S. epidermidis RP62A) was under 8 µg/mL, the MIC (E. coli ATCC 25922) was over 64 µg/mL and the MIC [1] was over 64 µg/mL. The MIC [2] was 16 to 64 µg/mL (≈ 17.3 to 69.3 µM).
CCCCCCc1ccc(C(=O)N(C)[C@H](CO)C(=O)N[C@H](C)C(=O)N[C@@H](CCCCN)C(=O)N(C)[C@@H]2C(=O)N[C@@H](C)C(=O)N[C@H](C(=O)O)Cc3ccc(O)c(c3)-c3cc2ccc3O)cc1 [Compound 97] was tested, and the MIC (S. aurues NCTC-8325) was over 64 µg/mL, the MIC (S. pneumoniae D39) was over 64 µg/mL and the MIC (S. epidermidis RP62A) was 16 to 64 µg/mL (≈ 17.7 to 70.9 µM). The MIC (E. coli ATCC 25922) was over 64 µg/mL and the MIC [2] was 16 to 64 µg/mL (≈ 17.7 to 70.9 µM).
